Experimental findings from patent US20220290122A1 (Whitehead Institute for Biomedical Research, priority 2019, published 2022) are described below.

For the experiment, the system named is MCART1-null Jurkat cells. In words: Cell proliferation assay with metabolite supplementation (metabolite rescue). The class given is cell-based, human. The settings on record: RPMI media; 1 mM pyruvate and 100 μg/ml uridine, 1 mM formate or 0.1 mM/16 μM hypoxanthine/thymidine added at the beginning of the culture period; FIG. 5M.

Procedure: Unless otherwise indicated, Jurkat and K562 cells were cultured in RPMI (Life Technologies) supplemented with 10% Inactivated Fetal Calf Serum (IFS, Sigma and Gemini), 2 mM glutamine, and penicillin/streptomycin. HeLa, HEK-293T, and Ben cells were cultured in DMEM (Life Technologies) supplemented with 10% IFS and penicillin/streptomycin. […] To compare proliferation of cells in glucose to proliferation in galactose, RPMI without glucose (Life Technologies) was supplemented with dialyzed IFS and either 10 mM glucose or galactose. All cell lines were maintained at 37° C. and 5% CO2.
10,000 cells per well were seeded into 96-well plates in triplicate. Cell titer glo reagent (Promega) was added to one plate 1 hour after seeding and luminescence was measured, while a second plate was read-out 4 days after seeding. Number of doublings in 4 days was determined by calculating the loge fold-change in signal between day 0 and 4. For cell counting experiments, 100,000 cells/ml were seeded in a 6-well plate in triplicates and counted immediately after seeding and from then on every 24 hours for 5 sequential days.

`O=CO` [formate]: the “rescue of the proliferation defect of MCART1-null cells by addition of metabolites to the media” value is on record as “not rescued”.
